pIC50: −log10 of the molar value. Active and inactive are the calls of the source. No cut-off for these calls is given here.
Legend:
A549 [1] = assay: Antiproliferative activity against human A549 cells assessed as inhibition of cell proliferation incubated for 48 hrs by MTT assay; type: functional, cell-based; conditions: A549, 48 h
NCI-H1975 = assay: Antiproliferative activity against human NCI-H1975 cells assessed as inhibition of cell proliferation incubated for 48 hrs by MTT assay; type: functional, cell-based; conditions: NCI-H1975, 48 h
NCI-H3122 = assay: Antiproliferative activity against human NCI-H3122 cells assessed as inhibition of cell proliferation incubated for 48 hrs by MTT assay; type: functional, cell-based; conditions: NCI-H3122, 48 h
[2] = Cytotoxicity against human WI-38 cells assessed as inhibition of cell proliferation incubated for 48 hrs by MTT assay; type: toxicity, cell-based
[3] = Cytotoxicity against human WI-26 AV4 cells assessed as inhibition of cell proliferation incubated for 48 hrs by MTT assay; type: toxicity, cell-based
[4] = Cytotoxicity against human MCF-10A cells assessed as inhibition of cell proliferation incubated for 48 hrs by MTT assay; type: toxicity, cell-based
[5] = Cytotoxicity against human Intestine 407 cells assessed as inhibition of cell proliferation incubated for 48 hrs by MTT assay; type: toxicity, cell-based
[6] = Therapeutic index, ratio of IC50 for cytotoxicity against human WI-38 cells to IC50 for antiproliferative activity against human A549 cells by MTT assay; type: toxicity, cell-based; conditions: WI-38 cells versus A549 cells, read-out: Ratio IC50
[7] = Therapeutic index, ratio of IC50 for cytotoxicity against human WI-26 AV4 cells to IC50 for antiproliferative activity against human A549 cells by MTT assay; type: toxicity, cell-based; conditions: WI-26 AV4 cells versus A549 cells, read-out: Ratio IC50
[8] = Therapeutic index, ratio of IC50 for cytotoxicity against human MCF-10A cells to IC50 for antiproliferative activity against human A549 cells by MTT assay; type: toxicity, cell-based; conditions: MCF-10A cells versus A549 cells, read-out: Ratio IC50
[9] = Therapeutic index, ratio of IC50 for cytotoxicity against human Intestine 407 cells to IC50 for antiproliferative activity against human A549 cells by MTT assay; type: toxicity, cell-based; conditions: Intestine 407 cells versus A549 cells, read-out: Ratio IC50
[10] = Therapeutic index, ratio of IC50 for cytotoxicity against human WI-38 cells to IC50 for antiproliferative activity against human NCI-H1975 cells by MTT assay; type: toxicity, cell-based; conditions: WI-38 cells versus NCI-H1975 cells, read-out: Ratio IC50
[11] = Therapeutic index, ratio of IC50 for cytotoxicity against human WI-26 AV4 cells to IC50 for antiproliferative activity against human NCI-H1975 cells by MTT assay; type: toxicity, cell-based; conditions: WI-26 AV4 cells versus NCI-H1975 cells, read-out: Ratio IC50
[12] = Therapeutic index, ratio of IC50 for cytotoxicity against human MCF10A cells to IC50 for antiproliferative activity against human NCI-H1975 cells by MTT assay; type: toxicity, cell-based; conditions: MCF10A cells versus NCI-H1975 cells, read-out: Ratio IC50
[13] = Therapeutic index, ratio of IC50 for cytotoxicity against human Intestine 407 cells to IC50 for antiproliferative activity against human NCI-H1975 cells by MTT assay; type: toxicity, cell-based; conditions: Intestine 407 cells versus NCI-H1975 cells, read-out: Ratio IC50
[14] = Therapeutic index, ratio of IC50 for cytotoxicity against human WI-38 cells to IC50 for antiproliferative activity against human NCI-H3122 cells by MTT assay; type: toxicity, cell-based; conditions: WI-38 cells versus NCI-H3122 cells, read-out: Ratio IC50
[15] = Therapeutic index, ratio of IC50 for cytotoxicity against human WI-26 AV4 cells to IC50 for antiproliferative activity against human NCI-H3122 cells by MTT assay; type: toxicity, cell-based; conditions: WI-26 AV4 cells versus NCI-H3122 cells, read-out: Ratio IC50
[16] = Therapeutic index, ratio of IC50 for cytotoxicity against human MCF-10A cells to IC50 for antiproliferative activity against human NCI-H3122 cells by MTT assay; type: toxicity, cell-based; conditions: MCF-10A cells versus NCI-H3122 cells, read-out: Ratio IC50
[17] = Therapeutic index, ratio of IC50 for cytotoxicity against human Intestine 407 cells to IC50 for antiproliferative activity against human NCI-H3122 cells by MTT assay; type: toxicity, cell-based; conditions: Intestine 407 cells versus NCI-H3122 cells, read-out: Ratio IC50
A549 [18] = assay: Anti-clonogenic activity against human A549 cells assessed as reduction in size and number of surviving clones incubated for 7 days by crystal violet staining method; type: functional, cell-based; conditions: A549, 168 h
WI-38 [19] = assay: Cytotoxicity against human WI-38 cells assessed as reduction in size and number of surviving clones incubated for 7 days by crystal violet staining method; type: toxicity, cell-based
A549 [20] = assay: Radiosensitization activity against human A549 cells assessed as potentiation of radiation-induced cytotoxicity by measuring dose modification factor at 0.5 uM pre-irradiated with gamma radiation at 4.5 Gy followed by incubation with drug and measured after 7 days by clonogenic assay relative to control; type: functional; conditions: time 7 day
WI-38 [21] = assay: Radioprotective activity against human WI-38 cells assessed as inhibition of radiation-induced cytotoxicity by measuring dose modification factor at 0.5 uM incubated for 24 hrs followed by irradiation with gamma radiation at 2 to 12 Gy by clonogenic assay relative to control; type: functional
[22] = Increase in GPx activity in human WI-38 cells at 10 uM incubated for 24 hrs relative to control; type: functional
[23] = Increase in TxrR activity in human WI-38 cells at 10 uM incubated for 24 hrs relative to control; type: functional
WI-38 [24] = assay: Upregulation of GPx1 mRNA expression in human WI-38 cells at 10 uM incubated for 6 hrs by real-time PCR analysis; type: functional, cell-based
[25] = Upregulation of GPx1 mRNA expression in human WI-38 cells at 10 uM incubated for 24 hrs by real-time PCR analysis relative to control; type: functional
[26] = Upregulation of TrxR1 mRNA expression in human WI-38 cells at 10 uM incubated for 6 hrs by real-time PCR analysis relative to control; type: functional
[27] = Upregulation of TrxR1 mRNA expression in human WI-38 cells at 10 uM incubated for 24 hrs by real-time PCR analysis relative to control; type: functional
WI-38 [28] = assay: Radioprotective activity against human WI-38 cells assessed as recovery of radiation-induced decrease in GPx activity at 10 uM pretreated for 24 hrs followed by irradiation with gamma radiation for 24 hrs; type: functional, cell-based; conditions: time 48.0 hrs
WI-38 [29] = assay: Radioprotective activity against human WI-38 cells assessed as recovery of radiation-induced decrease in TrxR activity at 10 uM pretreated for 24 hrs followed by irradiation with gamma radiation for 24 hrs; type: functional, cell-based; conditions: time 48.0 hrs
GR = assay: Reduction in intracellular activity of GR in human WI-38 cells at 150 uM incubated for 24 hrs relative to control; type: toxicity, cell-based
GST = assay: Reduction in intracellular activity of GST in human WI-38 cells at 150 uM incubated for 24 hrs relative to control; type: toxicity, cell-based
[30] = Drug reactivity with trichloromethyl peroxyl radical (CCl3O2.) assessed as rate constant by ABTS2- based competition assay; type: physicochemical
[31] = Drug reactivity with H2O2 assessed as rate constant by absorbance based analysis; type: physicochemical
[32] = Drug reactivity with Hypochlorous acid (HOCl) assessed as rate constant by CBA based competition assay; type: physicochemical
[33] = Drug reduction in DMSO-d6 in presence of 1 equiv. NAC by 77Se NMR spectroscopy; type: physicochemical
A549 [34] = assay: Radiosensitization activity against human A549 cells assessed as potentiation of radiation-induced cytotoxicity by measuring dose modification factor at 0.5 uM pre-irradiated with gamma radiation at 4 Gy followed by incubation with drug and measured after 7 days by clonogenic assay relative to control; type: functional; conditions: time 7 day

Row | SMILES | pIC50 (A549 [1]) | pIC50 (NCI-H1975) | pIC50 (NCI-H3122) | IC50 at 48 h [2] | IC50 at 48 h [3] | IC50 at 48 h [4] | IC50 at 48 h [5] | selectivity ratio [6] | selectivity ratio [7] | selectivity ratio [8] | selectivity ratio [9] | selectivity ratio [10] | selectivity ratio [11] | selectivity ratio [12] | selectivity ratio [13] | selectivity ratio [14] | selectivity ratio [15] | selectivity ratio [16] | selectivity ratio [17] | pIC50 (A549 [18]) | other results
1 | O=C(O)CC[Se][Se]CCC(=O)O | 4.82 | 4.97 | 4.67 | 171 µM | 151 µM | 61.2 µM | 483 µM | 11.2 | 9.9 | 4 | 31.7 | 16.1 | 14.2 | 5.7 | 32.5 | 7.9 | 7 | 2.8 | 3.2 | 5.92 | pIC50 (WI-38 [19]): 4.75; Ratio (A549 [20]): 0.87; Ratio (WI-38 [21]): 1.12; fold change (FC) [22]: ~1.34; fold change (FC) [23]: ~2; Activity (WI-38 [24]): inactive; Activity (WI-38 [24]; tested as the 2H-labelled form): inactive; fold change (FC) [25]: ~1.73; fold change (FC) [26]: ~4.02; fold change (FC) [27]: ~6.06; Activity (WI-38 [28]): Active; Activity (WI-38 [28]; tested as the 2H-labelled form): Active; Activity (WI-38 [29]): Active; Activity (WI-38 [29]; tested as the 2H-labelled form): Active; inhibition at 24 h, 150 µM (GR): 32%; inhibition at 24 h, 150 µM (GST): 24%; K [30]: 1 10^8/M/s; K [31]: 5.2 10^-2/M/s; K [32]: 1.6 10^5/M/s; Drug metabolism [33]: Metabolite_Notdetected
2 | [2H]C([2H])([Se][Se]C([2H])([2H])C([2H])([2H])C(=O)O)C([2H])([2H])C(=O)O | 4.82 | 5.34 | 4.33 | 1000 µM | 550 µM | 150 µM | 507 µM | 65.7 | 36.2 | 9.8 | 33.3 | 217 | 120 | 45.5 | 110 | 21.5 | 11.8 | 22.4 | 10.8 | 6.05 | pIC50 (WI-38 [19]): 4.45; Ratio (A549 [34]): 0.83; Ratio (WI-38 [21]): 1.16; fold change (FC) [22]: ~1.53; fold change (FC) [23]: ~1.71; fold change (FC) [25]: ~1.69; fold change (FC) [26]: ~2.04; fold change (FC) [27]: ~5.17; inhibition at 24 h, 150 µM (GR): 13%; inhibition at 24 h, 150 µM (GST): 8%; K [30]: 0.8 10^8/M/s; K [31]: 3.3 10^-2/M/s; K [32]: 9.5 10^4/M/s

— ChEMBL document CHEMBL5532758, “Deuterium labeling improves the therapeutic index of 3,3'-diselenodipropionic acid as an anticancer agent: insights from redox reactions” (RSC Med Chem, 2024)
